Measurements taken from patent US20230118467A1, “COSMETIC OR PHARMACEUTICAL USE OF AVENANTHRAMIDE L” (priority 2020, published 2023).
Several values for one entry are separate records, joined by “and”; a condition that tells them apart may be missing. Identical values can stand only once. Like-named read-outs stand apart in the source and are kept apart here.

Legend:
[1] = Temperature stability at 40° C. of avenanthramide mixture in solution; assay type: physicochemical; details: for Content after 2 weeks at 40° C. / Content after 4 weeks at 40° C. / Content before treatment: Avn in mixture DragoCalm (glycerin/water); for Content before treatment: HPLC; for Degradation in %: Avn in mixture DragoCalm
Description: with p=sample 1 and v=sample 2

[2] = Oxidative stability (Oxipress) of avenanthramides in solution; details: for Content after treatment / Degradation in %: 5 bars of oxygen at 70° C. for 24 hours; for Content before treatment: HPLC; for ΔE (colour difference, CIELAB): before vs after 5 bars of oxygen at 70° C. for 24 hours
CD44 = assay: Gene expression in neonatal human epidermal keratinocytes (real-time PCR): CD44; assay type: cell-based; details: 100 μM, 24 hours, nHEK, RQ ≥2.0 relevant
Procedure: (§1) Neonatal human epidermal keratinocytes (nHEK) were cultivated in an EpiLife® medium (Gibco) including an HKGS kit (Gibco) with 5% C02 at 37° C. in accordance with the supplier's instructions.
(§2) The cells were treated for 24 hours, with the test compounds dissolved in DMSO and DMSO alone as the vehicle control. Genomic target expression levels in treated cells were measured using a quantitative Real-Time PCR comparison to vehicle control treatment.
(§3) RNA was isolated using Qiagen's RNeasy® Mini Kit. The total RNA concentrations were measured using Eppendorf's pCuvetteG 1.0 and BioPhotometer, by measuring the absorption at 260 nm. Purity control values such as E260/280 and E260/230 were calculated simultaneously. Reverse transcription was performed using the high-capacity RNA-to-cDNA kit of Applied Biosystems, in accordance with the supplier's instructions. Samples were treated in Biometra's PCR Thermocycler.
(§4) For fast real-time PCR, the cDNA was diluted with RNase-free water, and the TaqMan™ Fast Universal PCR Master Mix of Applied Biosystems was used.
(§5) Quantitative real-time PCR was performed using the StepOnePlus fast real-time PCR instrument by Applied Biosystems. Analysis was conducted using the StepOne software and 2^−ΔΔct method (normalised to endogenous control […] expression).
(§6) For upregulations, RQ values ≥2.0 are considered to be relevant. […]

[3] = Radical-scavenging activity (ABTS assay); assay type: biochemical; details: absorption at 734 nm
Description: The ABTS assay measures the relative ability of antioxidants to scavenge the ABTS radical generated in aqueous phase, as compared with a Trolox (water-soluble vitamin E analogue) standard. The green-blue stable radical cationic chromophore 2,2′-azino-bis(3-ethylbenzothiazoline-6-sulphonate) (ABTS^•+) is generated by reaction with the ABTS salt using a strong oxidising agent (for example potassium permanganate or potassium persulphate) and has absorption maxima at 414, 645, 734 and 815 nm. The reduction of the blue-green ABTS radical by hydrogen-donating antioxidants is measured by the suppression of its characteristic long wave absorption spectrum.
With the aid of the ABTS assay, the antioxidative capacity of Avn L and Avn A were evaluated and compared.
2,2′-azino-bis-(3-ethylbenzothiazoline-6-sulphonic acid) (ABTS) was transformed into the blue-green radical cation ABTS^•+ using potassium persulphate. Through the addition of [6]-paradol and alpha-tocopherol, the radical cations were reduced and discoloration was observed, as determined photometrically by absorption at 734 nm. Inhibition of radical formation in the test substance is calculated by the following formula: […]
where • Atest substance is the absorption in the wells with the test substance including [6]-paradol and alpha-tocopherol • Acontrol is the absorption in the wells with no test substance.
Values for IC50 (the concentration at which radical formation is inhibited by 50%) were calculated from the inhibition of radical formation [%] in a series of dilutions of tested samples.

HSPB2 (=HSP27) = assay: Gene expression in neonatal human epidermal keratinocytes (real-time PCR): HSPB2; assay type: cell-based; details: 100 μM, 24 hours, nHEK, vs DMSO vehicle; RQ ≥2.0 relevant
Procedure: as §1, §2, §3, §4, §5
(§7) For upregulations, RQ values ≥2.0 are considered to be relevant.

BLVRB = assay: Gene expression in neonatal human epidermal keratinocytes (real-time PCR): BLVRB; assay type: cell-based; details: 100 μM, 24 hours, nHEK, RQ ≥2.0 relevant
Procedure: as §1, §2, §3, §4, §5, §6

tachykinin NK1 receptor = molecular target: T1, tachykinin NK1 receptor (Homo sapiens, UniProt P25103); assay: NK1 receptor inhibition study, radioligand binding assay ([3H] Substance P); details: for inhibition at 0.1 ppm / inhibition at 1 ppm / inhibition at 10 ppm / inhibition at 100 ppm / inhibition at 125 ppm: read-out: Percent inhibition of specific binding to the tachykinin NK1 receptor; for inhibition at 125 ppm: test concentration 125 ppm (Example 7)
T1 construct: expressed in transfected cells; host or cells: CHO cells
Procedure: The inhibition activity of avenanthramide L versus dihydroavenanthramide D and the structurally related avenanthramides A and D was evaluated in a radioligand binding assay.
The method employed in this study was adapted from the scientific literature so as to maximise reliability and reproducibility. Reference compound L-703,606 was run as an integral part of each experiment, to ensure the validity of the results obtained. The assay was performed under the conditions described in the following respective method.
Source: Human recombinant CHO cells
Incubation time/temperature: 90 minutes at 4° C. Incubation buffer: 20 mM HEPES, pH 7.4, • 1 mM MnCl2 • 0.1% BSA
Ligand: 0.80 nM [3H] Substance P
Non-specific ligand: 10.0 μM L-703,606 oxalate salt (CAS 144425-84-3) Specific binding: 90% Significance criteria: ≥50% of max. stimulation or inhibition Bmax: 1.70 pmol/mg protein
In another experiment, the inhibitory activity of a combination of avenanthramide L and another avenanthramide was evaluated in comparison to both substances alone in the radioligand binding assay as described in Example 1 to investigate a potential synergism.

[4] = tested on: Primary human dermal fibroblasts; assay: Cellular antioxidant activity (DCF-DA assay); assay type: cell-based; details: 24 h incubation, prooxidant challenge 1 mM 1 h; for inhibition at 500 µM: Homo sapiens, Fibroblast, read-out: Inhibition of oxidation
Procedure: The DCF-DA assay is a fluorometric microplate assay for the detection of oxidative stress by detecting oxidation of 2′,7′-dichlorofluorescein-diacetate (DCF-DA) into the highly fluorescent compound 2′,7′-dichlorofluorescein (DCF) due to the presence of reactive oxygen species (ROS). The DCF-DA assay allows the cellular antioxidant activity of a substance to be determined.
Primary human dermal fibroblasts were seeded in a 96-well microtiter plate at a concentration of 0.5×10^4 cells/well. Cultivation took place at 37° C. and 5% CO2 in DMEM, enriched with 10% foetal calf serum. Confluence was supposed to be around 70% at the time, the incubation with the test substances began. The test substances were applied to the cells at a concentration of 500 μM. After 24 h of incubation, 100 μL H2DCF-DA-solution (10 μM) incl. DAPI (1:1000) was added to all samples (excluded the background-control) and incubated for one hour to deesterify the H2DCF-DA by cellular esterases. The resulting H2DCF was thereby trapped inside the cell. After the incubation, the cells were washed and the prooxidant challenge was set (1 mM, 1 h). The resulting fluorescence was read at λex 504 nm; λem 524 nm. An increased level of ROS (reactive oxygen species) led to an increased amount of fluorescence.
The inhibition of the oxidation in the presence of test substances was calculated according to the following equation: […]
The abbreviations have the following meanings: • RFU test substance: Relative fluorescence units of the wells with test substance and with cells • RFU control: Relative fluorescence units of the wells without test substance, but with cells • RFU without cells: Relative fluorescence units of the wells without test substance and without cells (blank)

HPRT1 (housekeeping) = assay: Gene expression in neonatal human epidermal keratinocytes (real-time PCR): HPRT1; assay type: cell-based; details: 100 μM, 24 hours
Procedure: as §1, §2, §3, §4, §5, §6

CRYAB = assay: Gene expression in neonatal human epidermal keratinocytes (real-time PCR): CRYAB; assay type: cell-based; details: 100 μM, 24 hours, nHEK, vs DMSO vehicle, RQ ≥2.0 relevant
Procedure: as §1, §2, §3, §4, §5, §7

[5] = 24 h
HSP90AB1 = assay: Gene expression in neonatal human epidermal keratinocytes (real-time PCR): HSP90AB1; assay type: cell-based; details: 100 μM, 24 hours, nHEK, vs DMSO vehicle, RQ ≥2.0 relevant
Procedure: as §1, §2, §3, §4, §5, §7

HSP90AA1 = assay: Gene expression in neonatal human epidermal keratinocytes (real-time PCR): HSP90AA1; assay type: cell-based; details: 100 μM, 24 hours, nHEK, vs DMSO vehicle, RQ ≥2.0 relevant
Procedure: as §1, §2, §3, §4, §5, §7

[6] = Avn in mixture DragoCalm SP (glycerin/water)
[7] = single Avn in aqueous ethanolic solution (0.01 wt %)

T1 sequence (P25103 whole entry): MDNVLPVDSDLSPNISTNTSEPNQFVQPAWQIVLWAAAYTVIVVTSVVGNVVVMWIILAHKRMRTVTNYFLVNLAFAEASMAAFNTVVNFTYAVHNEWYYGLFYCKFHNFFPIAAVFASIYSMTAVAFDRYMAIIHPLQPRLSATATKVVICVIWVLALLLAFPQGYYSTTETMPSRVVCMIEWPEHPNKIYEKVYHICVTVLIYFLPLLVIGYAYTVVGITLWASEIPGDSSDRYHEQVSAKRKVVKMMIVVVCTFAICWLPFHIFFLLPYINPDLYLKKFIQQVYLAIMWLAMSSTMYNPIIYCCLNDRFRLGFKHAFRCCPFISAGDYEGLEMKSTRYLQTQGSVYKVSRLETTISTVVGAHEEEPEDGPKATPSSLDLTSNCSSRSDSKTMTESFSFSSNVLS

Content after 2 weeks at 40° C. [1] | Content after 4 weeks at 40° C. [1] | Content before treatment [1] | Content after treatment [2, 6] | Degradation in % [2, 6] | Content before treatment [2, 6] | Content after treatment [2, 7] | Degradation in % [2, 7] | Content before treatment [2, 7] | ΔE (colour difference, CIELAB) [2, 7] | inhibition at 0.1 ppm (tachykinin NK1 receptor; test concentration 0.1 ppm) | inhibition at 1 ppm (tachykinin NK1 receptor; test concentration 1 ppm) | inhibition at 10 ppm (tachykinin NK1 receptor; test concentration 10 ppm) | inhibition at 100 ppm (tachykinin NK1 receptor; test concentration 100 ppm) | inhibition at 125 ppm (tachykinin NK1 receptor) | Degradation in % ([1]; after 4 weeks at 40° C.) | Percent inhibition of specific binding to the tachykinin NK1 receptor (tachykinin NK1 receptor; test concentration 0.1 ppm) | Structure (SMILES) | Mean antioxidant activity (inhibition of radical formation) ([3]; 5 μM) | Mean antioxidant activity (inhibition of radical formation) ([3]; 10 μM) | inhibition at 500 µM [4] | also measured
50 ppm | 50 ppm | 50 ppm | 34 ppm | 3% | 35 ppm | 104 ppm | 0% | 104 ppm | 0.2 | 3% | 8% | 14% | 21% | 9% | – | – | O=C(C=Cc1ccc(O)cc1)Nc1ccc(O)cc1C(=O)O [Avn A, N-(4′-hydroxycinnamoyl)-5-hydroxyanthranilic acid] | 40 ± 4% | 76 ± 4% | 14 ± 6% | Degradation in % ([2]; Avn in mixture DragoCalm SP (glycerin/water), listed as Avenanthramide A): stable; RQ value, CD44 (CD44): no effect; RQ value, HSPB2 (=HSP27) (HSPB2 (=HSP27)): 1.9; RQ value, BLVRB (BLVRB): no effect
16 ppm | 10 ppm | 20 ppm | <1 ppm | 100% | 10 ppm | 89 ppm | 15% | 105 ppm | 2.3 | – | – | – | – | – | 50% | 9% | O=C(C=Cc1ccc(O)c(O)c1)Nc1ccc(O)cc1C(=O)O [Avn C, N-(3′-4′-dihydroxycinnamoyl)-5-hydroxyanthranilic acid] | – | – | – | Degradation in % ([1]; after 2 weeks at 40° C.): 20%; Degradation in % ([2]; Avn in mixture DragoCalm SP (glycerin/water), listed as Avenanthramide C): completely degraded; Percent inhibition of specific binding to the tachykinin NK1 receptor (tachykinin NK1 receptor; test concentration 1 ppm): 15%; Percent inhibition of specific binding to the tachykinin NK1 receptor (tachykinin NK1 receptor; test concentration 10 ppm): 27%; Percent inhibition of specific binding to the tachykinin NK1 receptor (tachykinin NK1 receptor; test concentration 100 ppm): 94%
11 ppm | 10 ppm | 11 ppm | 7 ppm | – | 8 ppm | 100 ppm | – | 103 ppm | 0.6 | 9% | 15% | 20% | 42% | 37% | 9% | – | O=C(/C=C/C=C/c1ccc(O)cc1)Nc1ccc(O)cc1C(=O)O [Avn L, 5-hydroxy-2-[(2E,4E)-5-(4-hydroxyphenyl)penta-2,4-dienamido]benzoic acid] | 40 ± 4% | 74 ± 4% | 49 ± 7% | RQ value, CD44 (CD44; listed as avenanthramide L): upregulates; Mean antioxidant activity (inhibition of radical formation) ([3]; 5 μM, listed as Avenanthramide L): at least 40%; Mean antioxidant activity (inhibition of radical formation) ([3]; 10 μM, listed as avenanthramide L): at least 70%; RQ value, HPRT1 (housekeeping) (HPRT1 (housekeeping); nHEK (Example 4 gene array)): 1.0; RQ value, HPRT1 (housekeeping) (HPRT1 (housekeeping); nHEK, vs DMSO vehicle (Example 3)): 1.0; RQ value, CRYAB (CRYAB): 2.1 and 1.6; RQ value, CRYAB (CRYAB; listed as avenanthramide L): upregulates; RQ value, BLVRB (BLVRB; listed as avenanthramide L): upregulates; Degradation in % [5]: 13%; Degradation in % ([5]; 0.01 wt %): 3%; RQ value, HSP90AB1 (HSP90AB1): 0.4 and 0.5; RQ value, HSP90AB1 (HSP90AB1; listed as avenanthramide L): no effect; RQ value, HSP90AA1 (HSP90AA1): 0.9; RQ value, HSP90AA1 (HSP90AA1; listed as avenanthramide L): no effect; Inhibition of oxidation ([4]; 500 μM): higher antioxidant activity than avenanthramide A
– | – | – | – | – | – | – | – | – | – | – | – | – | – | – | – | 8% | O=C(CCc1ccc(O)cc1)Nc1ccccc1C(=O)O [Dihydroavenanthramide D, dihydroavenanthramide D] | – | – | – | Percent inhibition of specific binding to the tachykinin NK1 receptor (tachykinin NK1 receptor; test concentration 1 ppm): 6%; Percent inhibition of specific binding to the tachykinin NK1 receptor (tachykinin NK1 receptor; test concentration 10 ppm): 8%; Percent inhibition of specific binding to the tachykinin NK1 receptor (tachykinin NK1 receptor; test concentration 100 ppm): 19%
